In assay [1] the target is T1, CB1 receptor (Homo sapiens, UniProt P21554).
T1 construct: expressed in transfected cells
The assay can be described thus: cell-based. The settings on record: SK-N-MC cells. The text has this: The CB1 and CB2 receptors are G-protein coupled receptors (GPCR), which influence cell function via the Gi-protein. These receptors modulate the activity of intracellular adenylate cyclase, which in turn produces the intracellular signal messenger cyclic-AMP (cAMP).
At baseline, or during non-ligand bound conditions, these receptors are constitutively active and tonically suppress adenylate cyclase activity. The binding of an agonist causes further receptor activation and produces additional suppression of adenylate cyclase activity. The binding of an inverse agonist inhibits the constitutive activity of the receptors and results in an increase in adenylate cyclase activity.
By monitoring intracellular adenylate cyclase activity, the ability of compounds to act as agonists or inverse agonists can be determined.
Test compounds were evaluated in SK-N-MC cells which, using standard transfection procedures, were stably transfected with human cDNA for pcDNA3-CRE β-gal and pcDNA3 CB1 receptor (human) or pcDNA3 CB2 receptor (human). By expressing CRE β-gal, the cells produced β-galactosidase in response to CRE promoter activation by cAMP. Cells expressing CRE β-gal and either the human CB1 or CB2 receptor will produce less β-galactosidase when treated with a CB1/CB2 agonist and will produce more β-galactosidase when treated with a CB1/CB2 inverse agonist.
The cells were grown in 96-well plates under standard cell culture conditions at 37° C. in a 5% CO2 atmosphere and culture media (wherein the media was supplemented with 2 mM L-glutamine, […] sodium pyruvate, 10% FBS (fetal bovine serum) and antibiotics).
The change in forskolin induced β-galactosidase activity was determined by setting a vehicle treated cell's activity value at 100% and expressing the β-galactosidase activity measured in a corresponding compound treated cell as a percent of the vehicle treated cell activity.
The EC50 value for functional activity for compounds tested was calculated by linear regression and was obtained from studies in which varying compound concentrations were used.
Where an EC50 value was not obtained for a test compound, the value shown (in %) represents change in functional activity and was obtained from a study in which one compound concentration was used.

The target of assay [2] is T1, CB1 receptor. In words: Binding assay for CB1 agonists or inverse agonists (SK-N-MC membranes, [3H]-CP-55,940). The settings on record: for inhibition at 1 µM: read-out: CB1 receptor binding percent inhibition, test concentration 1 μM (footnote 1); for IC50: Cannabinoid CB1 Receptor Binding IC50, calculated by linear regression from percent inhibition at various test concentrations; for inhibition at 0.015 µM: read-out: CB1 receptor binding percent inhibition, test concentration 0.015 μM (footnote 7); for inhibition at 0.25 µM: read-out: CB1 receptor binding percent inhibition, test concentration 0.25 μM (footnote 8). The essentials: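 Membranes from SK-N-MC cells stably expressing human CB1 incubated with compound and [3H]-CP-55,940 ([…]) for 90 min at 30° C in Tris-HCl pH 7.5, MgCl2, EDTA, fatty-acid-free BSA. Non-specific binding defined with 10 uM WIN 55,212; filtration, scintillation count; IC50 by linear regression.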

Assay [3] has as its target T2, CB2 receptor (Homo sapiens, UniProt P34972).
T2 construct: expressed in transfected cells
The assay can be described thus: Binding assay for CB2 agonists or inverse agonists (SK-N-MC membranes, [3H]-CP-55,940). The essentials:
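Membranes from SK-N-MC cells stably expressing human CB2 were incubated with radioligand and test compounds for 90 min at 30 °C in Tris-HCl buffer, pH 7.5, with MgCl2, EDTA and fatty-acid-free BSA. Filter-bound radioactivity was counted; IC50 was derived by linear regression of percent inhibition.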

[4] abbreviates: CB1 Receptor Functional Inverse Agonist EC50, forskolin induced β-galactosidase activity.
The mark [5] stands for this setting: read-out: CB1 receptor binding percent inhibition, test concentration 0.2 μM (footnote 2).
Setting [6] is: read-out: CB2 receptor binding percent inhibition, test concentration 0.2 μM (footnote 2).
Where [7] appears, read: read-out: CB2 receptor binding percent inhibition, test concentration 0.25 μM (footnote 8).
The mark [8] stands for this setting: test concentration 0.2 μM (footnote 2), read-out: CB2 receptor binding percent inhibition.

This is an account of results in US8378117B2 (priority 2005, dated 2013).

Molecules are shown by their SMILES. Read-outs that look alike come from different tables or passages of the source.

T2 sequence (P34972 whole entry): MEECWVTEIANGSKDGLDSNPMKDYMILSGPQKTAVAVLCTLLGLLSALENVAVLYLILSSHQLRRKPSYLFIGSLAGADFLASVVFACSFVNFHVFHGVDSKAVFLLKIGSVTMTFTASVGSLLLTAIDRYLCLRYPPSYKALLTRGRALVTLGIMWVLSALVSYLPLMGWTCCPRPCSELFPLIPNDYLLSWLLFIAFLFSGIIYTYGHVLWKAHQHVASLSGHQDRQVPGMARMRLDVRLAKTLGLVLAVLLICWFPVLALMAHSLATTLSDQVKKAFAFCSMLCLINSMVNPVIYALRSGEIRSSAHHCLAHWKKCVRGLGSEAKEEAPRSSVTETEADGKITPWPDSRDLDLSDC
T1 sequence (P21554 whole entry): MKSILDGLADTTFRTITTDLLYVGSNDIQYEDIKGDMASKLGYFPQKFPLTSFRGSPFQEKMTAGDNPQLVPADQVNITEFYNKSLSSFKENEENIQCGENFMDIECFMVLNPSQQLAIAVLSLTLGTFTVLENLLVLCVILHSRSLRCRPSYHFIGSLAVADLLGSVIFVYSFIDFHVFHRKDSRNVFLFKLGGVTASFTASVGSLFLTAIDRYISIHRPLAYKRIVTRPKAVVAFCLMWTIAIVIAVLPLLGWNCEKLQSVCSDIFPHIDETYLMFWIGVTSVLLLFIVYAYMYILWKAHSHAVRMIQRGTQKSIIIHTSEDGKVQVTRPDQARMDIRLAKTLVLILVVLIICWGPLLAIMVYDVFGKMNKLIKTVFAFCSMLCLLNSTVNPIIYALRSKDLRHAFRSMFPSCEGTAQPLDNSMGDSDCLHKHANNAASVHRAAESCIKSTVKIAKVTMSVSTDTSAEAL

The term EC50 denotes the concentration giving half of the maximal effect. On to `O=S(=O)(/C=C/c1nn(-c2ccc(F)cc2F)c2c1CCCCC2Cc1ccc(F)cc1)NN1CCCCC1` (centres unmarked) [Cpd 122, (2E)-2-[1-(2,4-difluoro-phenyl)-8-(4-fluoro-benzyl)-1,4,5,6,7,8-hexahydro-cycloheptapyrazol-3-yl]-ethenesulfonic acid piperidin-1-ylamide], for which, in assay [1] (setting [4]), the EC50 was 60 nM. Moreover, in assay [2], the inhibition at 1 µM worked out at 0%. Moreover, the “CB2 receptor binding percent inhibition” value in assay [3] (test concentration not stated) is listed as 0%.
As usually defined, the IC50 is the concentration needed to halve the response being measured. `COc1ccc(/C=C2\CCCCc3c(C(=O)NCc4ccccn4)nn(-c4ccc(Cl)cc4Cl)c32)cc1` [Cpd 210, (8E)-1-(2,4-dichloro-phenyl)-8-(4-methoxy-benzylidene)-1,4,5,6,7,8-hexahydro-cycloheptapyrazole-3-carboxylic acid (pyridin-2-ylmethyl)-amide] returned an EC50 in assay [1] (setting [4]) of 20 nM. Also, the IC50 in assay [2] is 40 nM. In addition, the inhibition at 0.2 µM in assay [2] (setting [5]) worked out at 76%; in assay [3] (setting [6]), 49%.
`C[C@@H](NC(=O)c1nn(-c2ccc(S(N)(=O)=O)cc2)c2c1CCCC/C2=C\c1ccc(Cl)cc1)c1ccccc1` [Cpd 184, (8E)-8-(4-chloro-benzylidene)-1-(4-sulfamoyl-phenyl)-1,4,5,6,7,8-hexahydro-cycloheptapyrazole-3-carboxylic acid [(1R)-1-phenyl-ethyl]-amide]: the EC50 in assay [1] (setting [4]) is 3 nM. Also, in assay [2], the IC50 was 50 nM. Besides, the inhibition at 0.2 µM in assay [2] (setting [5]) stood at 78%; in assay [3] (setting [6]) it was 27%.
On to `C[C@@H](NC(=O)c1nn(-c2ccc(Cl)cc2Cl)c2c1CCCC/C2=C\c1ccc(Cl)cc1)c1ccccc1` [Cpd 131, (8E)-8-(4-chloro-benzylidene)-1-(2,4-dichloro-phenyl)-1,4,5,6,7,8-hexahydro-cycloheptapyrazole-3-carboxylic acid [(1R)-1-phenyl-ethyl]-amide], for which the EC50 in assay [1] (setting [4]) is less than 30 nM. Moreover, in assay [2], the IC50 is 6 nM, the inhibition at 0.015 µM was found to be 53% and the inhibition at 0.25 µM amounted to 93%. In assay [3] (setting [7]), the inhibition at 0.25 µM was found to be 34%.
As to `O=C(NC1CCC1)c1nn(-c2ccc(Cl)cc2Cl)c2c1CCCCC2Cc1ccc(Cl)cc1` (centres unmarked) [Cpd 25, 8-(4-chloro-benzyl)-1-(2,4-dichloro-phenyl)-1,4,5,6,7,8-hexahydro-cycloheptapyrazole-3-carboxylic acid cyclobutylamide], the EC50 in assay [1] (forskolin induced β-galactosidase activity, read-out: CB1 Receptor Functional Inverse Agonist EC50) stood at 1200 nM. Further, the inhibition at 0.5 µM in assay [2] (read-out: CB1 receptor binding percent inhibition, test concentration 0.5 μM (footnote 10)) was found to be 30%. Moreover, in assay [2], the inhibition at 1 µM turned out to be 71%. Also, in assay [2] (test concentration not stated), the “CB1 receptor binding percent inhibition” value is listed as 51%. Besides, the “CB2 receptor binding percent inhibition” value in assay [3] (test concentration not stated) was found to be 19%.
The molecule `CC(NC(=O)c1nn(-c2ccc(Cl)cc2Cl)c2c1CCCC/C2=C\c1ccc(Cl)cc1)c1ccc(Cl)cc1` (centres unmarked) [Cpd 137, (8E)-8-(4-chloro-benzylidene)-1-(2,4-dichloro-phenyl)-1,4,5,6,7,8-hexahydro-cycloheptapyrazole-3-carboxylic acid [1-(4-chloro-phenyl)-ethyl]-amide] came in with an EC50 in assay [1] (setting [4]) of 30 nM. Besides, in assay [2], the IC50 was 10 nM, the inhibition at 0.015 µM worked out at 57% and the inhibition at 0.25 µM was 77%. Besides, the inhibition at 0.25 µM in assay [3] (setting [7]) is 0%.
For the molecule `Cn1nc(C(=O)NC2CCC2)c2c1C(Cc1ccccc1Cl)CCCC2` (centres unmarked) [Cpd 39, 8-(2-chloro-benzyl)-1-methyl-1,4,5,6,7,8-hexahydro-cycloheptapyrazole-3-carboxylic acid cyclobutylamide], the inhibition at 1 µM in assay [2] is 0%. For the same molecule, the “CB2 receptor binding percent inhibition” value in assay [3] (test concentration not stated) is on record as 30%.
`O=C(NCc1ccc(C(F)(F)F)cc1)c1nn(C2CCCCC2)c2c1CCCCC2Cc1ccc(F)cc1` (centres unmarked) [Cpd 65, 1-cyclohexyl-8-(4-fluoro-benzyl)-1,4,5,6,7,8-hexahydro-cycloheptapyrazole-3-carboxylic acid 4-trifluoromethyl-benzylamide]: the inhibition at 1 µM in assay [2] turned out to be 29%. In addition, in assay [3] (test concentration not stated), the “CB2 receptor binding percent inhibition” value was 52%.
Consider `O=C(NCC(F)(F)F)c1nn(Cc2ccccc2)c2c1CCCCC2c1ccccc1` (centres unmarked) [Cpd 86, 1-benzyl-8-phenyl-1,4,5,6,7,8-hexahydro-cycloheptapyrazole-3-carboxylic acid (2,2,2-trifluoro-ethyl)-amide], for which the inhibition at 0.25 µM in assay [2] turned out to be 0%; in assay [3] (test concentration 0.25 μM (footnote 8), read-out: CB2 receptor binding percent inhibition), 22%.
For the molecule `C[C@@H](NC(=O)c1nn(C2CCCCC2)c2c1CCCCC2Cc1ccc(Cl)cc1)c1ccccc1` (stereo partly drawn) [Cpd 6, 8-(4-chloro-benzyl)-1-cyclohexyl-1,4,5,6,7,8-hexahydro-cycloheptapyrazole-3-carboxylic acid [(1R)-1-phenyl-ethyl]-amide], in assay [2], the inhibition at 1 µM was 26%. The “CB2 receptor binding percent inhibition” value in assay [3] (test concentration not stated) came out at 4%.
Take `C[C@H](NS(=O)(=O)/C=C/c1n[nH]c2c1CCCCC2Cc1cccc(Cl)c1)c1ccccc1` (stereo partly drawn) [Cpd 160, (2E)-2-[8-(3-chloro-benzyl)-1,4,5,6,7,8-hexahydro-cycloheptapyrazol-3-yl]-ethenesulfonic acid [(1S)-1-phenyl-ethyl]-amide]: the inhibition at 0.2 µM in assay [2] (setting [5]) amounted to 2%; in assay [3] (setting [8]), 75%.
On the same counts, the results for `CC(C)[C@@H](CO)NC(=O)c1nn(-c2ccc(Cl)cc2Cl)c2c1CCCC[C@@H]2Cc1cccc(Cl)c1` [Cpd 158, (8R)-8-(3-chloro-benzyl)-1-(2,4-dichloro-phenyl)-1,4,5,6,7,8-hexahydro-cycloheptapyrazole-3-carboxylic acid [(1S)-1-hydroxymethyl-2-methyl-propyl]-amide] are 14% and 0%.
Regarding `CCOC(=O)[C@H]1C2C=CC(C2)[C@H]1NC(=O)c1nn(C2CCCCC2)c2c1CCCCC2Cc1cccc(F)c1` (stereo partly drawn) [Cpd 74, (2S,3R)-3-{[1-cyclohexyl-8-(3-fluoro-benzyl)-1,4,5,6,7,8-hexahydro-cycloheptapyrazole-3-carbonyl]-amino}-bicyclo[2.2.1]hept-5-ene-2-carboxylic acid ethyl ester], the “CB1 receptor binding average percent inhibition” value in assay [2] (value shown is an average percent inhibition (footnote 5), concentration not given) is “^(5)1%”. The “CB2 receptor binding percent inhibition” value in assay [3] (test concentration not stated) is listed as 10%.
Consider `O=C(NC1CCCC1)c1nn(C2CCCCC2)c2c1CCCCC2Cc1cccc(F)c1` (centres unmarked) [Cpd 52, 1-cyclohexyl-8-(3-fluoro-benzyl)-1,4,5,6,7,8-hexahydro-cycloheptapyrazole-3-carboxylic acid cyclopentylamide], for which the inhibition at 1 µM in assay [2] came out at 26%. Besides, the “CB2 receptor binding percent inhibition” value in assay [3] (test concentration not stated) stood at 21%.
For the molecule `C[C@H](NC(=O)c1n[nH]c2c1CCCC/C2=C\c1ccc(Cl)cc1)c1ccccc1` [Cpd 141, (8E)-8-(4-chloro-benzylidene)-1,4,5,6,7,8-hexahydro-cycloheptapyrazole-3-carboxylic acid [(1S)-1-phenyl-ethyl]-amide], the IC50 in assay [2] was 6 nM. Further, the inhibition at 0.2 µM in assay [2] (read-out: CB1 receptor binding percent inhibition) came out at 95%. Further, the “CB2 receptor binding percent inhibition” value in assay [3] (test concentration 0.2 μM (footnote 2)) was “^(2)97%”.
For `C[C@@H](NC(=O)c1nn(-c2ccncc2)c2c1CCCC/C2=C\c1ccc(Cl)cc1)C1CCCCC1` [Cpd 180, (8E)-8-(4-chloro-benzylidene)-1-pyridin-4-yl-1,4,5,6,7,8-hexahydro-cycloheptapyrazole-3-carboxylic acid [(1R)-1-cyclohexyl-ethyl]-amide], the inhibition at 0.2 µM stood at 40% in assay [2] (setting [5]) and 86% in assay [3] (setting [8]).
